A short description of data set [1]: Physicochemical properties: stability.
In data set [2] the target is N-acetylglucosamine-1-phosphate uridyltransferase (GlmU) (Escherichia coli, UniProt P0ACC7). Put plainly: GlmU inhibition, biochemical test (384-plate format, DTNB, absorption at 405 nm). Details: species or system bacterial. The conditions noted are these: 60 minutes of incubation at 30° C.; read-out: inhibition constant, IC50, inhibitory effect on the enzyme GlmU. The protocol: The inhibition of the GlmU can be determined in a biochemical test using the following method:
The assay was carried out in a 384-plate format. The reaction volume was 40 μl per test. The reaction mixture contained 10 μl of test substance and 15 μl of substrate solution consisting of acetylCoA and D-glucosamine-1-phosphate. The enzyme reaction was started by adding 15 μl of GlmU enzyme solution. After 60 minutes of incubation at 30° C., the reaction was stopped by adding 10 μl of developer reagent (DTNB dissolved in guanidine). The plates were then centrifuged (1 min, 1000 rpm) and stored for a further 45 minutes at room temperature before the absorption was read at 405 nm in a photometer. In order to be able to calculate the inhibitory activity of the test compounds, positive controls (signal with GlmU) and negative controls (signal without GlmU) were included on each plate. In order to exclude falsely positive samples, which could be caused by nonspecific substance effects (e.g. color), blank plates, which contained the substances but no GlmU, were included in parallel with the test plates. After correction for the blanks, the inhibitory activities of the substances were calculated in accordance with the following formula: Inhibition(%)=100×[1−(OD405 nm substance/OD405 nm positive control)]

A short description of data set [3]: Physicochemical properties: solubility. The conditions noted are these: organic solvents.

N-acetylglucosamine-1-phosphate uridyltransferase (GlmU), sequence (P0ACC7 whole entry): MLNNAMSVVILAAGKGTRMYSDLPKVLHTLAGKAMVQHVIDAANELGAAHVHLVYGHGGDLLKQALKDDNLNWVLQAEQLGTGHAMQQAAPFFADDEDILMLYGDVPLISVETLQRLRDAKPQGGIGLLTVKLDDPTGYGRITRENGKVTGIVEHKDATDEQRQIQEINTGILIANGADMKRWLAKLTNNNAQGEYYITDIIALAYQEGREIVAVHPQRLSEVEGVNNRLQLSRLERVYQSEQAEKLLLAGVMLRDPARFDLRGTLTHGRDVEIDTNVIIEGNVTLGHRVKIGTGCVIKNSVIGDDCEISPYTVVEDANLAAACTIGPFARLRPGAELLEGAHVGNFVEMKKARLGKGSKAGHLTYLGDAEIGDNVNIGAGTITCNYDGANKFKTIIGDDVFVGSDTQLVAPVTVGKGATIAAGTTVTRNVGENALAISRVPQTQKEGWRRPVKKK

`Cc1c(O)c(O)c(O)c(C=O)c1-c1cc2c(C=O)c(C)c(O)c(O)c2o1` [(II)]: the stability result in data set [1] (neutral and mildly acid medium) was “Stable in neutral and mildly acid medium”; in data set [1] (strongly acidic and alkaline solutions, under the influence of oxygen), “unstable in strongly acidic and alkaline solutions and under the influence of oxygen”. Also, in data set [2], the IC50 (in general, the concentration at which inhibition is half-maximal) came to 1000 nM. In addition, in data set [3], the solubility entry was “soluble in medium-polar and polar organic solvents”.

The values are drawn from patent publication US7148254B2, “2-Phenylbenzofuran derivatives, a process for preparing them, and their use” (Sanofi-Aventis Deutschland GmbH, priority 2003, dated 2006).
